The results in this text go back to patent US20120270237A9, “METHODS FOR THE IDENTIFICATION OF KINASE INTERACTING MOLECULES AND FOR THE PURIFICATION OF KINASE PROTEINS” (Cellzone AG, priority 2009, published 2012).

One assay addresses T1, PKD3 (Homo sapiens, UniProt O94806).
T1 sequence (O94806 1-890): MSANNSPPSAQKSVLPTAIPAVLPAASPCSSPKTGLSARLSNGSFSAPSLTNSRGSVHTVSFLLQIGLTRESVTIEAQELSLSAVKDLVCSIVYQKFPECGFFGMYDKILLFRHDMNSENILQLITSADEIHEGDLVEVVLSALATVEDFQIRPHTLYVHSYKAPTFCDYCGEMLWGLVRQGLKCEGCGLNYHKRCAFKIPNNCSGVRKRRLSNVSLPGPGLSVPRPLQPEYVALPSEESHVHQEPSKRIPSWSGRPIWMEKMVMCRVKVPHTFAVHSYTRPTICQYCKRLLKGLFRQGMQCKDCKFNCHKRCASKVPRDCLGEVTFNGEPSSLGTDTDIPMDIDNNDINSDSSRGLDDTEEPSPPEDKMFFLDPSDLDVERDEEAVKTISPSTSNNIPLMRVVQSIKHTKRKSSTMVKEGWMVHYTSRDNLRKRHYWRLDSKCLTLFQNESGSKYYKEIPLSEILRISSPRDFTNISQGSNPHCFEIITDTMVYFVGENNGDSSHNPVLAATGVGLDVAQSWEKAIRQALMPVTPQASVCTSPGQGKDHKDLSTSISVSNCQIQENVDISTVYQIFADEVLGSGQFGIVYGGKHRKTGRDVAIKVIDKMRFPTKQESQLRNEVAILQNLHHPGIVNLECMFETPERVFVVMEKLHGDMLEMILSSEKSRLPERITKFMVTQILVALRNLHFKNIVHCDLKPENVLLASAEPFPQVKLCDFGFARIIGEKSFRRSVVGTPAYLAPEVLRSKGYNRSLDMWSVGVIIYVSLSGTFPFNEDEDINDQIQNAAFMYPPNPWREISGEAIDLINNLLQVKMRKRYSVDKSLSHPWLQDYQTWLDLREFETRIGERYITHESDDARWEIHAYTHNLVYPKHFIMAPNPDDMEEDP
Kind of assay: Kinobeads competition binding, L-363 cell lysate. On the set-up: endogenous in cells; host or cells: L-363 (treated with MG132 for three hours before harvest). The note with it: 10 μM free compound, L-363 lysate. Here is the method: (§1) To one aliquot of cell lysate 10 μM of the free compound (FIG. 3, CZC31326) was added and allowed to bind to proteins in the lysate. Then the affinity matrix with the immobilized compound was added to capture proteins that were not interacting with the previously added free compound. Beads were separated from the lysate and bead bound proteins were eluted in SDS sample buffer and subsequently separated by SDS-Polyacrylamide gel electrophoresis (FIG. 8). Suitable gel bands were cut out and subjected to in-gel proteolytic digestion with trypsin. The second lysate aliquot was processed identically, however no free compound was added (DMSO solvent control). Peptides originating from samples 1 and 2 were labeled with iTRAQ reagents (iTRAQ 114 and iTRAQ 117) and the combined samples were analyzed with a nano-flow liquid chromatography system coupled online to a tandem mass spectrometer (LC-MS/MS) experiment followed by iTRAQ reporter ion quantification in the MS/MS spectra as described in Example 2.
(§2) For this experiment the human plasma cell leukaemia line L-363 was used (German Collection of Microorganisms and Cell Cultures, DSMZ number ACC49, Braunschweig, Germany). Cells were treated for three hours with 20 μM of the proteasome inhibitor MG132 (Z-Leu-Leu-Leu-al, Sigma C2211) prior to cell harvesting.

Another assay concerns the target T2, PIP5K2A (Homo sapiens, UniProt P48426).
T2 sequence (P48426 1-406): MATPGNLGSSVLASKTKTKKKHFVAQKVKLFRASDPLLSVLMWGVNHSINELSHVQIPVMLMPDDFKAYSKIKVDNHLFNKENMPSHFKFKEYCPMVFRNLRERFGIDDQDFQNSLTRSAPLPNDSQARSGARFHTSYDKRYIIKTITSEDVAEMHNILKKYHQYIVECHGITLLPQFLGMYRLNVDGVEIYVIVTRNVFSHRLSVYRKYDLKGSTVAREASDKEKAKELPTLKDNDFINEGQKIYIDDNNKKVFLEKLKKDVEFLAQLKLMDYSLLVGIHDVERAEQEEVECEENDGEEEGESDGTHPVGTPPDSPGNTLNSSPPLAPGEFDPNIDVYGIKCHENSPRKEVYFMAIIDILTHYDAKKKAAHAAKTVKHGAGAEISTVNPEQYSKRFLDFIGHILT
In words: Kinobeads competition binding, L-363 cell lysate. On the set-up: endogenous in cells; host or cells: L-363 (treated with MG132 for three hours before harvest). The note with it: 10 μM free compound, L-363 lysate. Here is the method: as §1, §2

The target of another assay is T3, MAP2K5 (Homo sapiens, UniProt Q13163).
T3 sequence (Q13163 1-448): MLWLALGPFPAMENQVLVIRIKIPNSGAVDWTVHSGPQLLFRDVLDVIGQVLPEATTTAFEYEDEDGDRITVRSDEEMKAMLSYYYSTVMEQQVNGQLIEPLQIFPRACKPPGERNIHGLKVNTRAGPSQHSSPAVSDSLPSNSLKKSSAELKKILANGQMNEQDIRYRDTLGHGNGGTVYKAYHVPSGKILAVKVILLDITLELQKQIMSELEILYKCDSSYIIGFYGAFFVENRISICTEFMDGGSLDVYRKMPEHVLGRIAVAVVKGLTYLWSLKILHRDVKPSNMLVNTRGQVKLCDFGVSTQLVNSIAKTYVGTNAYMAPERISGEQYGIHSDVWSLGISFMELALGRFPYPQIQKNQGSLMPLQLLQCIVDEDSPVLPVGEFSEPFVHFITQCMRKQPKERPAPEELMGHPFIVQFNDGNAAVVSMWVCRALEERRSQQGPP
In words: Kinobeads competition binding, HeLa Placenta lysate mix. On the set-up: capturing and identification of kinases from mixed HeLa placenta lysates; endogenous in cells; host or cells: mixed lysate of HeLa cells and placenta tissue. The note with it: 10 μM free compound. The method, then: as §1, with “10).” for “8).”

With `CS(=O)(=O)Nc1ccccc1Nc1nc(Nc2cccc(OCCN)c2)ncc1Cl` [CZC31326, N-(2-(2-(3-(2-aminoethoxy)phenylamino)-5-chloropyrimidin-4-ylamino)phenyl)methanesulfonamide], the inhibition at 10 µM was determined as 98.1% on PKD3, 96.4% on PIP5K2A and 90.4% on MAP2K5.

In general, inhibition refers to the change of the read-out against control, counted positive when it falls. Read a high inhibition as a response far below the control.
